Source: article PMC6199744, “Development of Chemical Proteomics for the Folateome and Analysis of the Kinetoplastid Folateome” (ACS Infectious Diseases, 2018)

How the values were obtained:
DHFR-TS = DHFR-TS (Trypanosoma brucei brucei, UniProt Q27783); test: Individual bead pull down with competing free ligand; conditions: competing free ligand 100 μM; bead = immobilized compound of the row; T. brucei lysate; read-out: % Inhibition of protein binding to bead, DHFR-TS, T. brucei
From the text: (§1) Antifolate compounds were immobilized onto NHS-activated sepharose beads/reverse sepharose beads through amide coupling via either an amino or carboxyl group (see Figure 3). The reaction was monitored by observing the disappearance of test compound by LCMS, after which the unreacted coupling sites were capped with NHS-acetate or aminoethanol.
(§2) Folate metabolizing enzymes are not highly abundant proteins,[19],[20] potentially making their identification by MS difficult. Beads will not only pull down the low abundant high affinity binders but also attract highly abundant, low affinity binders or so-called nonspecific binders. Sometimes, the nonspecific high abundant proteins can mask true binders. The target identification approach used in this study overcomes this issue by performing competition studies. Various concentrations of the free unmodified inhibitor (test compound) were preincubated with the lysate, prior to addition of the beads derivatized with immobilized compounds. Following washing of the bound proteins from the beads and tryptic digest, the peptides were labeled using the TMTs and then pooled. Differences in peptide abundance were analyzed by fragmentation of the isotope-coded isobaric tags in the MS/MS spectra (Figure 5).[9],[11],[12],[21] While the competition experiments with test compound confirm specific binding, it is also possible that some proteins will have a stronger binding interaction with the derivatized beads than the competing test compound, due to subtle differences in the interactions between the immobilized compound and the test compound with the target protein.

PTR-1 = PTR-1 (Trypanosoma brucei brucei, UniProt O76290); test: as above; conditions: competing free ligand 100 μM; bead = immobilized compound of the row; T. brucei lysate; read-out: % Inhibition of protein binding to bead, PTR-1, T. brucei
PTR-1, sequence (O76290 entry or part of it): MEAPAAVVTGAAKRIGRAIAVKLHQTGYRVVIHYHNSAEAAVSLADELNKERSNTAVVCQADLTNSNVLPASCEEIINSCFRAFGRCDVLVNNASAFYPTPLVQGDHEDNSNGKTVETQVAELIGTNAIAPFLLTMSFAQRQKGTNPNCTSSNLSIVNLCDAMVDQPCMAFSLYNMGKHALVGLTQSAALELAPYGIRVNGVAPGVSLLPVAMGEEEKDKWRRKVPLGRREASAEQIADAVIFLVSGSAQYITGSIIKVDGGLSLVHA
From the text: as §1, §2

[1] = target: PTERIDINE REDUCTASE (TB927.8.2210) (Trypanosoma brucei brucei, UniProt O76290); test: Multitargeted bead mixture competition; format: binding, T. brucei; conditions: T. brucei lysate
PTERIDINE REDUCTASE (TB927.8.2210), sequence (O76290 entry or part of it): as above

[2] = target: DIHYDROFOLATE REDUCTASE-T[…] (TB427.07.5480) (Trypanosoma brucei brucei, UniProt Q27783); test: Multitargeted bead mixture competition; format: binding; conditions: T. brucei lysate
UniProt Q27783, sequence (Q27783 whole entry): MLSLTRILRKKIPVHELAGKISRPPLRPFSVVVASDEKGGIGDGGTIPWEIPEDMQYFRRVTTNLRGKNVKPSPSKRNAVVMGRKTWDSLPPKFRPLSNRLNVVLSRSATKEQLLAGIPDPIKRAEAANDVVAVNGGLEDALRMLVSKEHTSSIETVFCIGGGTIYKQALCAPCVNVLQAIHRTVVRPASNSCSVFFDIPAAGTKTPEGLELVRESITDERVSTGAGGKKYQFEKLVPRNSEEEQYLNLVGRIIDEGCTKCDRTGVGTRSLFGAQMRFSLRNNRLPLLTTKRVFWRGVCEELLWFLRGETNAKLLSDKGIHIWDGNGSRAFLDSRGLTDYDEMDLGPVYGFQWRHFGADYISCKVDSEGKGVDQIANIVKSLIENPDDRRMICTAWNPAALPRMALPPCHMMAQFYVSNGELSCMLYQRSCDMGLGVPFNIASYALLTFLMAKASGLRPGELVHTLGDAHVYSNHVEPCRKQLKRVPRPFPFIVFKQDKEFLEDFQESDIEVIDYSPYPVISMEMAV

[3] = tested on: HYPOTHETICAL PROTEIN, CONSERVED (TB427.05.3680); test: Multitargeted bead mixture competition; format: binding; conditions: free ligand 100 μM, T. brucei lysate
TB427.04.1870 = test: Multitargeted bead mixture competition; format: binding; conditions: free ligand 100 μM, T. brucei lysate
[4] = tested on: CHOLINE KINASE (TB427TMP.18.0017); test: Multitargeted bead mixture competition; format: binding, T. brucei; conditions: multitargeted bead mixture; free ligand 100 μM; T. brucei lysate; TB427TMP.18.0017 CHOLINE KINASE
TB11.03.0290 = test: Multitargeted bead mixture competition; format: binding, T. brucei; conditions: multitargeted bead mixture; free ligand 100 μM; T. brucei lysate; TB11.03.0290
[5] = target: GLYCERALDEHYDE 3-PHOSPHATE DEHYDROGENASE, GLYCOSOM (TB427.06.4300) (Trypanosoma brucei brucei, UniProt P22512); test: Multitargeted bead mixture competition; format: binding, T. brucei
UniProt P22512, sequence (P22512 whole entry): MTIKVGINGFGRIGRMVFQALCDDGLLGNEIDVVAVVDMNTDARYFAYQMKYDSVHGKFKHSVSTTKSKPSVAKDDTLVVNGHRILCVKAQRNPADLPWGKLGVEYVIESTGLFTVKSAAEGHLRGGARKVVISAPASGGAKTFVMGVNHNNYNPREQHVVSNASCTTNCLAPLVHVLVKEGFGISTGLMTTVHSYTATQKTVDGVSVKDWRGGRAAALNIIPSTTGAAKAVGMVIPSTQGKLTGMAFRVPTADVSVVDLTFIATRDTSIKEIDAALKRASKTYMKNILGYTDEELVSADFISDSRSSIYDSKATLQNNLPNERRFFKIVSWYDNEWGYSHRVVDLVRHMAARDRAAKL

[6] = tested on: PHOSPHATIDYLINOSITOL-4-PHOSPHATE 5-KINASE, PUTATIV (TB427.10.3890); test: Multitargeted bead mixture competition; format: binding; conditions: free ligand 100 μM, T. brucei lysate
TB927.8.6460 = test: Multitargeted bead mixture competition; format: binding, T. brucei; conditions: multitargeted bead mixture; free ligand 100 μM; T. brucei lysate; TB927.8.6460
TB09.211.1690 = test: Multitargeted bead mixture competition; format: binding; conditions: free ligand 100 μM, T. brucei lysate
TB927.7.1340 = test: Multitargeted bead mixture competition; format: binding; conditions: free ligand 100 μM, T. brucei lysate
TB927.8.6760 = test: Multitargeted bead mixture competition; format: binding; conditions: free ligand 100 μM, T. brucei lysate
[7] = tested on: HYPOTHETICAL PROTEIN, CONSERVED (TB427.03.2670); test: Multitargeted bead mixture competition; format: binding; conditions: free ligand 100 μM, T. brucei lysate
[8] = tested on: PEPTIDYL-PROLYL CIS-TRANS ISOMERASE (CYCLOPHILIN- (TB427TMP.211.1350)); test: Multitargeted bead mixture competition; format: binding; conditions: free ligand 100 μM, T. brucei lysate
[9] = tested on: BRANCHED-CHAIN AMINO ACID AMINOTRANSFERASE, PUTATI (TB427.02.4590); test: Multitargeted bead mixture competition; format: binding; conditions: free ligand 100 μM, T. brucei lysate
[10] = tested on: NGG1 INTERACTING FACTOR 3-LIKE (Tb427tmp.02.5000); format: binding; conditions: multitargeted bead mixture; free ligand 100 μM; T. brucei lysate; Tb427tmp.02.5000
[11] = tested on: ACETYLTRANSFERASE, PUTATIVE (Tb427.08.3310); test: Multitargeted bead mixture competition; format: binding; conditions: free ligand 100 μM, T. brucei lysate
[12] = tested on: HYPOTHETICAL PROTEIN, CONSERVED (Tb427.10.6100); test: Multitargeted bead mixture competition; format: binding; conditions: free ligand 100 μM, T. brucei lysate
[13] = tested on: SUCCINYL-COA SYNTHETASE ALPHA SUBUNIT, PUTATIVE (Tb427.03.2230); test: Multitargeted bead mixture competition; format: binding; conditions: free ligand 100 μM, T. brucei lysate
[14] = tested on: IRON/ASCORBATE OXIDOREDUCTASE FAMILY PROTEIN, PUTA (Tb427.02.6180); test: Multitargeted bead mixture competition; format: binding, T. brucei; conditions: multitargeted bead mixture; free ligand 100 μM; T. brucei lysate; Tb427.02.6180
[15] = tested on: PROTEIN KINASE, PUTATIVE (Tb427.03.1570); test: Multitargeted bead mixture competition; format: binding; conditions: free ligand 100 μM, T. brucei lysate
methylene-THF-reductase = methylene-THF-reductase (Homo sapiens, UniProt P42898); test: Multitargeted bead mixture competition, HeLa cell extract; format: binding; conditions: bead mixture; HeLa cell extract
methylene-THF-reductase, sequence (P42898 whole entry): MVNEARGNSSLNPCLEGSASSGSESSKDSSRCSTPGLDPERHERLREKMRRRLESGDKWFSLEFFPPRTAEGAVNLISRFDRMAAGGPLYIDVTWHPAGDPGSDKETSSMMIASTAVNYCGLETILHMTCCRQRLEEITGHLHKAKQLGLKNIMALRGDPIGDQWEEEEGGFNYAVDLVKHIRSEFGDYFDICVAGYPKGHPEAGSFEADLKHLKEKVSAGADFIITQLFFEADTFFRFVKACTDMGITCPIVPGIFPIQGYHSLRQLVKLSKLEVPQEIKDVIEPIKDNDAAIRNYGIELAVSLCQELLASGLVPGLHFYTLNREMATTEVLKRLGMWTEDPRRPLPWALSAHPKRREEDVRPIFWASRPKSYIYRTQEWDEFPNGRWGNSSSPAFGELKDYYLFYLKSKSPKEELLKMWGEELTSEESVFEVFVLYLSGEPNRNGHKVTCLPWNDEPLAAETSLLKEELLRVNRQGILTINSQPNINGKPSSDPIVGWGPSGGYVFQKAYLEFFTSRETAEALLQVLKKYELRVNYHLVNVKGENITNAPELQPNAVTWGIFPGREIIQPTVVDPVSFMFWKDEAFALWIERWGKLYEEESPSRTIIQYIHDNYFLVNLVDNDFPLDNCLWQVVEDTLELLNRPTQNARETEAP

[16] = tested on: LMJF.26.2560 (hypothetical conserved ATP binding protein); test: Individual MTX bead pull down; conditions: L. major
[17] = tested on: LMJF.30.2970 (glyceraldehyde-3-phosphate dehydrogenase, GAPDH); test: Individual MTX bead pull down; format: binding; conditions: L. major

DHFR-TS, sequence (Q27783 whole entry): as the sequence (Q27783 whole entry) above

CN(Cc1cnc2nc(N)nc(N)c2n1)c1ccc(C(=O)N[C@@H](CCC(=O)O)C(=O)O)cc1 [MTX, methotrexate]
inhibition at 100 µM (DHFR-TS): 95% | inhibition at 100 µM (PTR-1): 90% | competition for PTR1 (Figure 6) ([1]; bead mixture, compound 100 μM): competed for PTR1 | percentage of competition from bead binding ([1]; multitargeted bead mixture, free ligand 100 μM, TB927.8.2210 PTERIDINE REDUCTASE): 93% | competition for DHFR-TS (Figure 6) ([2]; bead mixture, compound 100 μM): compete for DHFR-TS | percentage of competition from bead binding ([2]; multitargeted bead mixture, free ligand 100 μM, TB427.07.5480 DHFR-TS): 85% | percentage of competition from bead binding [3]: 69% | percentage of competition from bead binding (TB427.04.1870): 58% | percentage of competition from bead binding [4]: 57% | percentage of competition from bead binding (TB11.03.0290): 57% | binding to GAPDH (Tb427.06.4300) ([5]; bead mixture, T. brucei lysates): bound | percentage of competition from bead binding ([5]; multitargeted bead mixture, free ligand 100 μM, T. brucei lysate, TB427.06.4300 GAPDH): 56% | percentage of competition from bead binding [6]: 56% | percentage of competition from bead binding (TB927.8.6460): 54% | percentage of competition from bead binding (TB09.211.1690): 51% | percentage of competition from bead binding (TB927.7.1340): 51% | percentage of competition from bead binding (TB927.8.6760): 50% | percentage of competition from bead binding [7]: 50% | percentage of competition from bead binding [8]: 50% | percentage of competition from bead binding [9]: 34% | percentage of competition from bead binding [10]: 31% | percentage of competition from bead binding [11]: 31% | percentage of competition from bead binding [12]: 23% | percentage of competition from bead binding [13]: 18% | percentage of competition from bead binding [14]: 17% | percentage of competition from bead binding [15]: 9% | inhibition, methylene-THF-reductase (methylene-THF-reductase): 77% | binding of LMJF.26.2560 to MTX [16]: bind to MTX | binding of LMJF.30.2970 (GAPDH) to MTX [17]: bind to MTX
